In ChEMBL document CHEMBL1201862, “PubChem BioAssay data set” (2004):
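These data come from cells grown in 96-well plates and exposed to compound for 48 hours at five concentrations. Here, GI50 denotes the concentration required for 50% inhibition of growth.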 Calls of active or inactive are those of the source. Rule as the data show it: active = GI50 up to about 1.1 µM and inactive = higher.

Columns and labels:
Test in all cases: NCI tumour cell line growth inhibition, 48 h
NCI-H460 = test system: NCI-H460
HT-29 = test system: HT-29
SF-539 = test system: SF-539
UO-31 = test system: UO-31
HCC 2998 = test system: HCC 2998
DU-145 = test system: DU-145
TK-10 = test system: TK-10
UACC-257 = test system: UACC-257
RPMI-8226 = test system: RPMI-8226
A549 = test system: A549
MDA-MB-435 = test system: MDA-MB-435
RXF 393 = test system: RXF 393
MCF7 = test system: MCF7
EKVX = test system: EKVX
SK-OV-3 = test system: SK-OV-3
NCI/ADR-RES = test system: NCI/ADR-RES
OVCAR-4 = test system: OVCAR-4
SF-268 = test system: SF-268
SR = test system: SR

SMILES | GI50 (NCI-H460) | GI50 (HT-29) | GI50 (SF-539) | GI50 (UO-31) | GI50 (HCC 2998) | GI50 (DU-145) | GI50 (TK-10) | GI50 (UACC-257) | GI50 (RPMI-8226) | GI50 (A549) | GI50 (MDA-MB-435) | GI50 (RXF 393) | GI50 (MCF7) | GI50 (EKVX) | GI50 (SK-OV-3) | GI50 (NCI/ADR-RES) | GI50 (OVCAR-4) | GI50 (SF-268) | GI50 (SR)
CC(C)C(=O)OCC1CCCN2CCCCC12 (configuration not stated) | 38.7 µM (inactive) | 30.5 µM (inactive) | > 100 µM (inactive) | 62.7 µM (inactive) | 28.8 µM (inactive) | > 100 µM (inactive) | > 100 µM (inactive) | > 100 µM (inactive) | 95.3 µM (inactive) | 74 µM (inactive) | > 100 µM (inactive) | > 100 µM (inactive) | 48.1 µM (inactive) | > 100 µM (inactive) | > 100 µM (inactive) | > 100 µM (inactive) | > 100 µM (inactive) | > 100 µM (inactive) | –
CO[C@H]1[C@@H](O)[C@@H](O)O[C@@H](O[C@H]2CC[C@@]3(C)[C@H](CC[C@@H]4[C@@H]3[C@H](O)C[C@]3(C)[C@@H](C5=CC(=O)OC5)CC[C@]43O)C2)[C@@H]1O | 0.0895 µM (active) | 0.435 µM (active) | 0.08 µM (active) | 0.163 µM (active) | 1.67 µM (inactive) | 0.0946 µM (active) | 0.187 µM (active) | 0.382 µM (active) | 0.198 µM (active) | 0.0491 µM (active) | 0.28 µM (active) | 0.056 µM (active) | – | 0.151 µM (active) | 0.248 µM (active) | 0.222 µM (active) | 0.192 µM (active) | 0.11 µM (active) | 0.21 µM (active)
CC(C)(C)C(=O)O[C@H]1C=C[C@@H](O)[C@@H]2[C@H]1[C@@H]1C=C[C@H]2C1 | 53.8 µM (inactive) | – | 26.5 µM (inactive) | 47.9 µM (inactive) | 14.9 µM (inactive) | 47.6 µM (inactive) | 26.4 µM (inactive) | 6.52 µM (inactive) | 17.1 µM (inactive) | 30 µM (inactive) | – | – | 7.18 µM (inactive) | 6.01 µM (inactive) | 25.2 µM (inactive) | 20.2 µM (inactive) | 21.2 µM (inactive) | 27.9 µM (inactive) | 18.9 µM (inactive)
COc1ccccc1/C=C/c1c(N)ncnc1Nc1cccc(Cl)c1 | 20.7 µM (inactive) | 17.7 µM (inactive) | 18.3 µM (inactive) | 20.6 µM (inactive) | 27.4 µM (inactive) | 36.6 µM (inactive) | 14.5 µM (inactive) | 19.3 µM (inactive) | 0.318 µM (active) | 14.6 µM (inactive) | 16.7 µM (inactive) | 16 µM (inactive) | 25.8 µM (inactive) | 16.7 µM (inactive) | – | – | 14.6 µM (inactive) | 16.1 µM (inactive) | 0.132 µM (active)
COc1ccc(-n2sc3ncc(-c4ccccc4)cc3c2=O)cc1 | > 100 µM (inactive) | – | – | 21.7 µM (inactive) | 92.7 µM (inactive) | 61.7 µM (inactive) | 66.1 µM (inactive) | 57.8 µM (inactive) | 18.2 µM (inactive) | 35.9 µM (inactive) | 40.6 µM (inactive) | 40.2 µM (inactive) | 28.6 µM (inactive) | 69.5 µM (inactive) | > 100 µM (inactive) | 72.9 µM (inactive) | 23.3 µM (inactive) | – | –
COC(=O)c1cc(OCc2cc(OCc3ccc(Br)cc3)cc(OCc3ccc(Br)cc3)c2)cc(OCc2cc(OCc3ccc(Br)cc3)cc(OCc3ccc(Br)cc3)c2)c1 | > 100 µM (inactive) | – | 14.1 µM (inactive) | > 100 µM (inactive) | > 100 µM (inactive) | > 100 µM (inactive) | > 100 µM (inactive) | > 100 µM (inactive) | > 100 µM (inactive) | > 100 µM (inactive) | > 100 µM (inactive) | – | > 100 µM (inactive) | > 100 µM (inactive) | > 100 µM (inactive) | > 100 µM (inactive) | > 100 µM (inactive) | > 100 µM (inactive) | –
OCC1c2ccccc2-n2nc(-c3ccccc3)c(O)c21 (configuration not stated) | 29.9 µM (inactive) | 30.6 µM (inactive) | 43.1 µM (inactive) | 22.8 µM (inactive) | 16.3 µM (inactive) | 68.5 µM (inactive) | 19.9 µM (inactive) | 47 µM (inactive) | – | 44.2 µM (inactive) | 26.2 µM (inactive) | 17.7 µM (inactive) | 14.4 µM (inactive) | 29.2 µM (inactive) | 39.4 µM (inactive) | 18.6 µM (inactive) | 26.9 µM (inactive) | 36.9 µM (inactive) | –
Oc1nc2c(c(-c3ccccc3Cl)n1)COC/C2=C\c1ccccc1Cl | > 100 µM (inactive) | > 100 µM (inactive) | > 100 µM (inactive) | 80.9 µM (inactive) | > 100 µM (inactive) | > 100 µM (inactive) | > 100 µM (inactive) | > 100 µM (inactive) | > 100 µM (inactive) | – | > 100 µM (inactive) | > 100 µM (inactive) | 65.9 µM (inactive) | 25.6 µM (inactive) | > 100 µM (inactive) | > 100 µM (inactive) | > 100 µM (inactive) | > 100 µM (inactive) | –
COc1ccccc1N/C(SCc1ccccc1)=C(/C(Cl)=C(Cl)Cl)[N+](=O)[O-] | 58.2 µM (inactive) | 20.3 µM (inactive) | 17.4 µM (inactive) | 16.4 µM (inactive) | – | 26.7 µM (inactive) | – | 85.3 µM (inactive) | 26.6 µM (inactive) | 30.4 µM (inactive) | 17.3 µM (inactive) | – | 25.9 µM (inactive) | 32 µM (inactive) | 46.5 µM (inactive) | 24.2 µM (inactive) | 22 µM (inactive) | 18.6 µM (inactive) | –
CN1N=C(c2ccncc2)OC1c1ccc(Cl)c(Cl)c1 (configuration not stated) | > 100 µM (inactive) | 60.8 µM (inactive) | > 100 µM (inactive) | > 100 µM (inactive) | > 100 µM (inactive) | > 100 µM (inactive) | > 100 µM (inactive) | > 100 µM (inactive) | > 100 µM (inactive) | > 100 µM (inactive) | > 100 µM (inactive) | 74.1 µM (inactive) | > 100 µM (inactive) | > 100 µM (inactive) | > 100 µM (inactive) | > 100 µM (inactive) | > 100 µM (inactive) | > 100 µM (inactive) | –
COC1(OC)CCN(Cc2ccccc2)C1=O | 18.7 µM (inactive) | 5.92 µM (inactive) | 14 µM (inactive) | 10.9 µM (inactive) | 18.2 µM (inactive) | 15.2 µM (inactive) | 16 µM (inactive) | 14.2 µM (inactive) | 6.32 µM (inactive) | 17.7 µM (inactive) | 15.6 µM (inactive) | 12.3 µM (inactive) | 4.39 µM (inactive) | 16 µM (inactive) | 96.4 µM (inactive) | 25.3 µM (inactive) | 16 µM (inactive) | > 38.1 µM (inactive) | –
COC(=O)Nc1nc2cc(Oc3ccc4nc(NC(=O)OC)[nH]c4c3)ccc2[nH]1 | 1.36 µM (inactive) | 1.14 µM (inactive) | 0.381 µM (active) | 11.9 µM (inactive) | 0.984 µM (active) | 0.791 µM (active) | 4.78 µM (inactive) | – | 0.929 µM (active) | 2.25 µM (inactive) | 0.115 µM (active) | 0.74 µM (active) | – | 3.67 µM (inactive) | 1.45 µM (inactive) | 4.33 µM (inactive) | 1.77 µM (inactive) | 1.36 µM (inactive) | 0.252 µM (active)
